Data as given in US12227488B2, “Small molecule degraders of Helios and methods of use” (DANA-FARBER CANCER INSTITUTE, INC., priority 2018, dated 2025).
Entries after “also recorded” stand apart in the source; their conditions may differ.

Columns and labels:
IKZF2 = experiment: Cellular degradation assay, eGFP-IKZF2Δ fusion with mCherry reporter in Flp-In 293 cells; type: cell-based; conditions: 5 h incubation, n=1
Summary of the method: (§1)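 Flp-In 293 cells stably expressing eGFP-tagged degron fusions with P2A-mCherry reporter were treated with compound titrations (0.5% DMSO) for 5 hours. Imaging quantified GFP-positive/mCherry-positive cell fraction per well; DC50 at 5 h from nonlinear variable-slope fit.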

GSPT1 = GSPT1 (Homo sapiens, UniProt P15170+Q96SW2); experiment: Cellular degradation assay, eGFP-GSPT1 fusion with mCherry reporter in Flp-In 293 cells; type: cell-based; set-up: expressed in transfected cells; host or cells: Flp-In 293; conditions: 5 h incubation, n=1
GSPT1, sequence (P15170 whole entry, the tested form may be a part): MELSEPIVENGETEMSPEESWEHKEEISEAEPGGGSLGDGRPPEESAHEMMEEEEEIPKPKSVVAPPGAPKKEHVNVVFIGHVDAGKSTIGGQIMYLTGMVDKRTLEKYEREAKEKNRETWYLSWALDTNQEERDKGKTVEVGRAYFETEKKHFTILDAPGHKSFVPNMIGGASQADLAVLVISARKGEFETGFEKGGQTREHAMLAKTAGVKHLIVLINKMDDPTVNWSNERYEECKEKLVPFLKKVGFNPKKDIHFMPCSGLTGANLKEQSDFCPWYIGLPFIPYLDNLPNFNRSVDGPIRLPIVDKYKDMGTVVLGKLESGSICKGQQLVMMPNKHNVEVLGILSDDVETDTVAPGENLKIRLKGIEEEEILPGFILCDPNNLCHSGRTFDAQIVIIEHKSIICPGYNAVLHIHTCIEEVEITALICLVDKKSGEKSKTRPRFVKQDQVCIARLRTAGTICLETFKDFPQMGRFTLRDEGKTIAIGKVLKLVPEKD
GSPT1, sequence (Q96SW2 whole entry, the tested form may be a part): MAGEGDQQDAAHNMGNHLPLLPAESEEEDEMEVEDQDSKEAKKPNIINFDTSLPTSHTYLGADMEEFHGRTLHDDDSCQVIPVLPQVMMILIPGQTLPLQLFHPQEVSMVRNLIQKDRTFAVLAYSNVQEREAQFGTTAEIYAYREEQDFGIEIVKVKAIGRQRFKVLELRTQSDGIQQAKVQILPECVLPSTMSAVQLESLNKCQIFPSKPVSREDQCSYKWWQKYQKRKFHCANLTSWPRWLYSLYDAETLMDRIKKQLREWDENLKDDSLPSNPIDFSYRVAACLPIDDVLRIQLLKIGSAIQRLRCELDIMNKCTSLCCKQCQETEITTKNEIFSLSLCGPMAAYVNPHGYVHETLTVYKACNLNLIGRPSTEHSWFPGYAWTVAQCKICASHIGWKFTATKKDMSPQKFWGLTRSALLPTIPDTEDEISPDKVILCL
GSPT1, sequence (Q16531 whole entry partner, the tested form may be a part): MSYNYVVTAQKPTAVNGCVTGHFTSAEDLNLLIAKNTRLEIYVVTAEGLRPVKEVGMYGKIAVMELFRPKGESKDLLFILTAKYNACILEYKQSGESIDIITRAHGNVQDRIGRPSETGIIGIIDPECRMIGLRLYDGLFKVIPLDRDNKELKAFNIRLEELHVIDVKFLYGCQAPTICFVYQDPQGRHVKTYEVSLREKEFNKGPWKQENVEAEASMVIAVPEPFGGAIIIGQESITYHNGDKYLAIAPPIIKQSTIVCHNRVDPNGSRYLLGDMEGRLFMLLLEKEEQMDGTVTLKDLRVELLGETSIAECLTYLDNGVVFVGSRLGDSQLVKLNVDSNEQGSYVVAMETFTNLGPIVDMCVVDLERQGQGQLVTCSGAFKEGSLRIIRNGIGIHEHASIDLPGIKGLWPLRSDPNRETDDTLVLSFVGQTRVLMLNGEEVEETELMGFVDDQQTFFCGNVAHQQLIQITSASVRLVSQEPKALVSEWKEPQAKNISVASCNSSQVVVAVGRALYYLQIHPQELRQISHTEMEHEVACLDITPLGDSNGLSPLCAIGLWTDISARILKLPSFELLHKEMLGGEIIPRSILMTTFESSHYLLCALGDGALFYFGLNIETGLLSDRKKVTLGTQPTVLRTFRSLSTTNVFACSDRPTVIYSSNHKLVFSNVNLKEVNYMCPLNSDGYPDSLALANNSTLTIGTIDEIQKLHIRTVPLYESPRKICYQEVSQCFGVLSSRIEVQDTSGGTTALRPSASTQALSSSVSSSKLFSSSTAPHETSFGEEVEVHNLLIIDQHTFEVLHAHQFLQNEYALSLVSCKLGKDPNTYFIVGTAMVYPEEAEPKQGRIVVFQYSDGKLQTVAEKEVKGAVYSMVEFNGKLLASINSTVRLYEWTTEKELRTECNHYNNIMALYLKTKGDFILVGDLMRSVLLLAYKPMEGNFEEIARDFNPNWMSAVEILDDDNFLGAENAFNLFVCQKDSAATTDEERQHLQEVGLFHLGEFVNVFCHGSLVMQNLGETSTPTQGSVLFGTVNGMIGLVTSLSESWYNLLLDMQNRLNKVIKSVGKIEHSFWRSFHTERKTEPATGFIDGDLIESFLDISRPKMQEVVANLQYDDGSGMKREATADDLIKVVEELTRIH
Summary of the method: as §1

IKZF1 = molecular target: T1, IKZF1 (Homo sapiens, UniProt Q13422); experiment: Cellular degradation assay, eGFP-IKZF1Δ fusion with mCherry reporter in Flp-In 293 cells; type: cell-based; conditions: 5 h incubation, n=1
T1 construct: expressed in transfected cells; host or cells: Flp-In 293
T1 sequence (Q13422 83-213 isoform Q13422-7 limits assumed): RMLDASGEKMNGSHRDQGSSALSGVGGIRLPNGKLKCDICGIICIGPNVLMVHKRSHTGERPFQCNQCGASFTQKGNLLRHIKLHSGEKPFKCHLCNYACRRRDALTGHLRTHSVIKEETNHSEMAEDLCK
T1 sequence (Q96SW2 whole entry partner, the tested form may be a part): as the sequence (Q96SW2 whole entry, the tested form may be a part) above
T1 sequence (Q16531 2-1140 partner limits assumed): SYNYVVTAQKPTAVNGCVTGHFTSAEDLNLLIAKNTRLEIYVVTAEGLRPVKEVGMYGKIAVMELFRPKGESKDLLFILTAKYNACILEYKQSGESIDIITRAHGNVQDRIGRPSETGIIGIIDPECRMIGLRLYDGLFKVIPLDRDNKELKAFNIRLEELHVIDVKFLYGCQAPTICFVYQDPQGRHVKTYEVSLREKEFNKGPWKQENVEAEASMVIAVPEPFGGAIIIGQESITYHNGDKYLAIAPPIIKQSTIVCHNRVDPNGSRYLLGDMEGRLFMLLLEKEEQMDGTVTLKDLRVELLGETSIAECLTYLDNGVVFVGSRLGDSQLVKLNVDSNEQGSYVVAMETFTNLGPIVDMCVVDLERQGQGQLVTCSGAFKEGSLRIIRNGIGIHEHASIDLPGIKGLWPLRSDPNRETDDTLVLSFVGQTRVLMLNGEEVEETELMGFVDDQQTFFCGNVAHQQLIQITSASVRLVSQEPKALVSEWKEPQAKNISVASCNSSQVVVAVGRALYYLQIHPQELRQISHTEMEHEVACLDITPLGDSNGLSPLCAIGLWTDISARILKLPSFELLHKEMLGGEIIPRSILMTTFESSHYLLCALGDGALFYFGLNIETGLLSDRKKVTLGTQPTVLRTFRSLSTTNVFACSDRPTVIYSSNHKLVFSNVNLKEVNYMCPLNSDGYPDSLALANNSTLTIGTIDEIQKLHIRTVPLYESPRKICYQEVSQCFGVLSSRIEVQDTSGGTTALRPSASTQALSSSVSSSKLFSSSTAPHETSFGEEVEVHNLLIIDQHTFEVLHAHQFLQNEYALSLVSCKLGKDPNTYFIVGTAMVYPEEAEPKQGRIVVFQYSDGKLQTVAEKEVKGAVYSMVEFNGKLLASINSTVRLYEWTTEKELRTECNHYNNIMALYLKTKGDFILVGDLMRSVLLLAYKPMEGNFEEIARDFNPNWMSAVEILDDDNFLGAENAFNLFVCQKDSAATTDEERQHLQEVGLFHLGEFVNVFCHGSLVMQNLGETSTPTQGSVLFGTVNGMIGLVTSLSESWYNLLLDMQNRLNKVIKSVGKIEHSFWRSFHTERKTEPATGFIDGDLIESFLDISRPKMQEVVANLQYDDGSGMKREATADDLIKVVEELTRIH
Summary of the method: as §1

SALL4 ZNF1-2 = molecular target: T2, SALL4 ZNF1-2 (Homo sapiens, UniProt Q96SW2+Q9UJQ4); experiment: Cellular degradation assay, eGFP-SALL4 ZnF1-2 fusion with mCherry reporter in Flp-In 293 cells; type: cell-based; conditions: 5 h incubation, n=1
T2 construct: IKZF1Δ, IKZF2Δ, GSPT1 and SALL4 ZnF1-2 were subcloned; expressed in transfected cells; host or cells: Flp-In 293
Summary of the method: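 Flp-In 293 cells stably expressing eGFP-SALL4 ZnF1-2 fusion plus mCherry reporter were treated with compound titrations (0.5% DMSO) for 5 hours. Imaging at 488/561 nm gave, per well, the fraction of GFP-positive among mCherry-positive cells.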

CRBN and Helios (IKZF2) = molecular target: T3, CRBN and Helios (IKZF2) (Homo sapiens, UniProt Q96SW2+Q9UKS7); experiment: TR-FRET dimerization assay (CRBN-IKZF2 ternary complex formation); type: binding; conditions: for TR-FRET-IKZF2 (Normalized to CC-885): n=1
T3 construct: His (N); Strep (N)
T3 sequence (Q96SW2 whole entry): as the sequence (Q96SW2 whole entry, the tested form may be a part) above
T3 sequence (Q9UKS7 whole entry): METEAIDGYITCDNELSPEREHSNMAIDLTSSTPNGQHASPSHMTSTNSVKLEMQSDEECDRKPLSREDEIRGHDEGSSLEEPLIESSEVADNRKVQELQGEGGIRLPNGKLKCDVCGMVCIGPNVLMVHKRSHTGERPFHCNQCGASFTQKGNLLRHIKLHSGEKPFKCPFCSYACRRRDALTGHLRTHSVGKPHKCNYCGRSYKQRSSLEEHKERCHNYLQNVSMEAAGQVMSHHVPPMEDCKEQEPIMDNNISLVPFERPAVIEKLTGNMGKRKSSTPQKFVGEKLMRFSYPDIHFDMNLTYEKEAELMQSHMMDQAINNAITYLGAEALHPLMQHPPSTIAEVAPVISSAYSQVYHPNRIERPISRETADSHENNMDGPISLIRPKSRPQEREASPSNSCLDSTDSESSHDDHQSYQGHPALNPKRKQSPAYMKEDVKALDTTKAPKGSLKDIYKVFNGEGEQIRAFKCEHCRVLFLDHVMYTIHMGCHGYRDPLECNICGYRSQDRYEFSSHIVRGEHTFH
Summary of the method: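 BODIPY-labeled DDB1ΔB-CRBN and in vitro biotinylated IKZF2 were treated with increasing compound concentrations plus tracer Terbium-Streptavidin and incubated 15 min at rt. Recruitment was quantified as the 520/490 nm TR-FRET ratio; values are single measurements (n=1), each averaged from at least three technical replicates.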

Helios = molecular target: T4, Helios (Homo sapiens, UniProt Q96SW2+Q9UKS7); experiment: Immunoblot for Helios in Jurkat cells; type: cell-based; conditions: Jurkat cells, 24 h treatment
T4 construct: endogenous in cells; host or cells: Jurkat
Protocol: (§2) A focused library of imide analogs was synthesized and assessed for their ability to induce dimerization between CRBN and Helios in a time-resolved fluorescence energy transfer (TR-FRET) assay (FIG. 1A).
(§3) Cells were lysed in M-PER buffer (Thermo Scientific) containing protease/phosphatase inhibitor cocktail (Roche). Protein concentration was measured using a BCA assay (Pierce™) Equivalent amounts of each sample were loaded on 4-12% Bis-Tris gels (Invitrogen™) transferred to nitrocellulose membranes, and immunoblotted with the indicated antibodies. IRDye®800-labeled goat anti-rabbit IgG and IRDye®680-labeled goat anti-mouse IgG (LI-COR®) secondary antibodies were purchased from LI-COR®, and membranes were detected on an Odyssey® detection system (LI-COR® Biosciences).
as §3, with “Odyssey” for “Odyssey®”

Ikaros = molecular target: T5, Ikaros (Homo sapiens, UniProt Q13422+Q96SW2); experiment: Immunoblot for Ikaros in Jurkat cells; type: cell-based; conditions: 24 h treatment
T5 construct: endogenous in cells; host or cells: Jurkat
Protocol: as §2, §3

[1] = compound concentration 2.00E−05
[2] = compound concentration 2.00E−06
[3] = compound concentration 2.00E−07
[4] = compound concentration 6.6667E−05
[5] = compound concentration 6.6667E−06
[6] = compound concentration 6.6667E−07 (667 nM)

| Compound | IKZF2 GFP/RFP Relative Abundance (IKZF2; [1]) | IKZF2 GFP/RFP Relative Abundance (IKZF2; [2]) | IKZF2 GFP/RFP Relative Abundance (IKZF2; [3]) | GSPT1 GFP/RFP Relative Abundance (GSPT1; [1]) | GSPT1 GFP/RFP Relative Abundance (GSPT1; [2]) | GSPT1 GFP/RFP Relative Abundance (GSPT1; [3]) | IKZF1 GFP/RFP Relative Abundance (IKZF1; [1]) | IKZF1 GFP/RFP Relative Abundance (IKZF1; [2]) | IKZF1 GFP/RFP Relative Abundance (IKZF1; [3]) | SALL4 ZNF1-2 GFP/RFP Relative Abundance (SALL4 ZNF1-2; [1]) | SALL4 ZNF1-2 GFP/RFP Relative Abundance (SALL4 ZNF1-2; [2]) | SALL4 ZNF1-2 GFP/RFP Relative Abundance (SALL4 ZNF1-2; [3]) | TR-FRET-IKZF2 (Normalized to CC-885) (CRBN and Helios (IKZF2); [4]) | TR-FRET-IKZF2 (Normalized to CC-885) (CRBN and Helios (IKZF2); [5]) | TR-FRET-IKZF2 (Normalized to CC-885) (CRBN and Helios (IKZF2); [6]) | Helios loss (immunoblot) (Helios) | Ikaros loss (immunoblot) (Ikaros) | TR-FRET signal (520/490 ratio), CRBN-Helios dimerization, in words (CRBN and Helios (IKZF2); FIG. 1B, 2A, 5) |
| --- | --- | --- | --- | --- | --- | --- | --- | --- | --- | --- | --- | --- | --- | --- | --- | --- | --- | --- |
| O=C1CCC(N2C(=O)C=C(Nc3ccc(Cc4ccccc4)cc3)C2=O)C(=O)N1 (stereo not drawn) [Compound 39, 3-(3-((4-benzylphenyl)amino)-2,5-dioxo-2,5-dihydro-1H-pyrrol-1-yl)piperidine-2,6-dione] | 1.070 | 1.008 | 1.047 | 0.743 | 0.813 | 0.830 | 0.705 | 0.691 | 0.677 | 1.110 | 1.006 | 1.043 | 0.271 | 0.230 | 0.174 | – | – | – |
| Cc1ccc(NC(=O)NCCNC2=CC(=O)N(C3CCC(=O)NC3=O)C2=O)cc1Cl (stereo not drawn) [Compound 41, 1-(3-chloro-4-methylphenyl)-3-(2-((1-(2,6-dioxopiperidin-3-yl)-2,5-dioxo-2,5-dihydro-1H-pyrrol-3-yl)amino)ethyl)urea] | 0.969 | 1.027 | 1.040 | 0.038 | 0.062 | 0.077 | 0.638 | 0.909 | 1.003 | 1.020 | 0.994 | 1.004 | 0.170 | 0.126 | 0.104 | – | – | – |
| Cc1ccc(NC(=O)Nc2ccc(NC3=CC(=O)N(C4CCC(=O)NC4=O)C3=O)cc2)cc1Cl (stereo not drawn) [Compound 42, 1-(3-chloro-4-methylphenyl)-3-(4-((1-(2,6-dioxopiperidin-3-yl)-2,5-dioxo-2,5-dihydro-1H-pyrrol-3-yl)amino)phenyl)urea] | 1.056 | 1.050 | 0.999 | 0.118 | 0.182 | 0.215 | 0.775 | 0.536 | 0.577 | 1.122 | 0.997 | 1.018 | 0.407 | 0.318 | 0.209 | – | – | – |
| Cc1ccc(NC(=O)Nc2cccc(NC3=CC(=O)N(C4CCC(=O)NC4=O)C3=O)c2)cc1Cl (stereo not drawn) [Compound 43, 1-(3-chloro-4-methylphenyl)-3-(3-((1-(2,6-dioxopiperidin-3-yl)-2,5-dioxo-2,5-dihydro-1H-pyrrol-3-yl)amino)phenyl)urea] | 1.054 | 1.007 | 0.980 | 0.083 | 0.072 | 0.087 | 0.996 | 0.240 | 0.301 | 1.072 | 0.897 | 0.888 | 0.443 | 0.353 | 0.278 | – | – | – |
| Cc1ccc(NC(=O)NCc2cccc(NC3=CC(=O)N(C4CCC(=O)NC4=O)C3=O)c2)cc1Cl (stereo not drawn) [Compound 44, 1-(3-chloro-4-methylphenyl)-3-(3-((1-(2,6-dioxopiperidin-3-yl)-2,5-dioxo-2,5-dihydro-1H-pyrrol-3-yl)amino)benzyl)urea] | 0.042 | 0.079 | 0.085 | 0.399 | 0.504 | 0.744 | 0.059 | 0.071 | 0.072 | 0.888 | 0.742 | 0.702 | 1.223 | 1.191 | 1.119 | induced loss of both Ikaros and Helios; also recorded: required 24 h treatment | induced loss of both Ikaros and Helios | increased activity over CC-885 at all tested concentrations |
| Cc1ccc(NC(=O)NCc2ccccc2NC2=CC(=O)N(C3CCC(=O)NC3=O)C2=O)cc1Cl (stereo not drawn) [Compound 45, 1-(3-chloro-4-methylphenyl)-3-(2-((1-(2,6-dioxopiperidin-3-yl)-2,5-dioxo-2,5-dihydro-1H-pyrrol-3-yl)amino)benzyl)urea] | 1.015 | 1.022 | 1.022 | 0.476 | 0.921 | 1.093 | 0.957 | 1.027 | 1.060 | 1.059 | 0.993 | 0.948 | 0.079 | 0.059 | 0.051 | – | – | – |
| Cc1ccc(NC(=O)NCc2ccc(NC3=CC(=O)N(C4CCC(=O)NC4=O)C3=O)cc2)cc1Cl (stereo not drawn) [Compound 46, 1-(3-chloro-4-methylphenyl)-3-(4-((1-(2,6-dioxopiperidin-3-yl)-2,5-dioxo-2,5-dihydro-1H-pyrrol-3-yl)amino)benzyl)urea] | 0.242 | 0.361 | 0.510 | 0.048 | 0.089 | 0.076 | 0.045 | 0.087 | 0.112 | 0.950 | 0.906 | 0.854 | 0.787 | 0.828 | 0.701 | – | – | – |
| Cc1ccc(NC(=O)NCCCNC2=CC(=O)N(C3CCC(=O)NC3=O)C2=O)cc1Cl (stereo not drawn) [Compound 47, 1-(3-chloro-4-methylphenyl)-3-(3-((1-(2,6-dioxopiperidin-3-yl)-2,5-dioxo-2,5-dihydro-1H-pyrrol-3-yl)amino)propyl)urea] | 1.019 | 1.051 | 0.995 | 0.034 | 0.041 | 0.036 | 0.312 | 0.298 | 0.326 | 1.060 | 1.039 | 1.010 | 0.288 | 0.230 | 0.191 | – | – | – |
